Laboratory results published in patent US8158623B2, “Heptacyclic compounds and the pharmaceutical uses thereof for preventing and treating diabetes and metabolic syndrome” (Shanghai Institute of Materia Medica Chinese Academy of …, priority 2007, dated 2012).

What was measured:
[1] = test system: 3T3-L1 adipocytes; assay: Glucose uptake in 3T3-L1 adipocytes (3H-labelled 2-deoxyglucose); format: cell-based; details: for Glucose uptake, Mean, Compound + Insulin Group (Control Group = 1.000): with insulin, relative to control without insulin; for fold induction at 10 µM: Mus musculus, 3T3-L1, 2 h incubation, read-out: Glucose uptake, Mean, Compound Group (Control Group = 1.000)
Method: The effect of the compounds on baseline or insulin-stimulated glucose uptake was evaluated, using the model of glucose uptake in 3T3-L1 adipocytes.
Adipose tissue is the target of glucose metabolism in vivo. The sensitivity for insulin and availability of glucose in adipose tissues are tightly associated with the insulin resistance. The transportation of glucose into adipocytes is a rate-limiting step for the glucose metabolism, and also an important indicator for evaluating the sensitivity for insulin in adipose tissue. 3T3-L1 is a kind of pre-adipocyte, and can become adipocyte after differentiated completely. Therefore, 3T3-L1 is a desirable model for the glucose transport.
Pre-adipocyte, 3T3-L1 was induced to differentiate under certain conditions. After 3T3-L1 differentiated into adipocytes, the compounds of interest with different concentrations and DMSO (used as control) can be added and incubated with the adipocytes for different periods, then the glucose uptake could be determined. For evaluating the ability for a compound to stimulate glucose uptake, the baseline and insulin-induced glucose uptake were determined, and the increase in baseline and insulin-induced glucose uptake upon treatment of the compounds as compared with control group (with 0.1% DMSO) is calculated, based on the ^3H-labelled 2-deoxyglucose inside the cells.
3T3-L1 cells purchased from Karolinska Institute (Sweden) were cultured in DMEM medium containing 10% fetal calf serum at 37° C., under 5% CO2. The cells were passaged every 3-4 days. The cells were inoculated into 12-well plate. Upon confluence, culture medium containing 0.5 mM 3-isobutyl-1-methylxanthine, 0.25 μM dexamethasone and 5 μg/ml insulin was added and cultured for 3 days. Then, the culture medium was replaced by a medium containing 5 μg/ml insulin and further cultured for 3 days. The insulin was removed, and the cells had differentiated completely into mature adipocytes after 2 days which could be used to determine the glucose uptake.
23 compounds chosen by the inventors were added into the culture medium of adipocytes in a dose of 10 μM. After incubation for 2 h, the effect of the compounds on glucose uptake in 3T3-L1 cells was observed. Culture medium without compounds was used as negative control. The control group only supplemented with insulin and the experiment group supplemented with compounds plus insulin were also employed to observe the effect of the compounds on glucose uptake.

[2] = test system: AMP-Activated Protein Kinase (AMPK); assay: Phosphorylation of AMPK in HepG2 cell (Western blot); format: cell-based, Human; details: HepG2, 50 uM, 5 minutes, P<0.01 or P<0.05
Method: (§1) Human hepatoma carcinoma cell strain (HepG2, purchased from the cell bank of Shanghai Institute of Cell Biology of Chinese Academy) was used. The Human hepatoma carcinoma cells were passaged by 0.1% pancreatin/0.02% EDTA digestion, and cultured in a incubator at 37° C. using MEM culture medium containing 10% FBS, under 5% CO2/95%.
(§2) HepG2 cells were cultured in 6-well plates for 48 hours until 70%-80% confluence. Serum starvation was started by changing medium with MEM containing 0.5% BSA. After starvation for 6 hours, cells were treated with the compounds (final concentration of 50 uM, containing 0.25% DMSO) for 5 minutes. The culture medium was discarded, and cells were harvested and washed for twice with pre-cooled PBS. The washing liquid was discarded, and any residual PBS was blotted dry. DMSO without heptacyclic compounds was used as control.
(§3) Extraction of total cellular protein: 150 μl/well homogenizing buffer (137 mM NaCl, 2.7 mM KCl, 1 mM MgCl2, 0.5 mM Na3VO4, 1% Triton X-100, 10% Glycerol, 20 mM Tris-HCl pH 7.8, 1 ug/ml Leupeptin, 0.2 mM PMSF, 10 mM NaF, 1 ug/ml Aprotinin, 1 mM EDTA, 1 mM DTT, 5 mM Sodium pyrophosphate, 1 mM Benzamidine) was added. Cells were collected into a 1.5 ml centrifuge tube using cell scraper. Cells were homogenized using sonicator (5 W of power) for 2 times (3 seconds per time), and shaken on a shaker for 1 hour. Supernatant (i.e., total cellular protein) was collected by centrifuging at 14000 rpm for 15 min at 4° C., and stored at −70° C. until use. After the protein concentration was determined by Bradford method, the supernatant was formulated as the loading sample with final concentration of 0.6 mg/ml. The whole preparation process was performed at 4° C.
(§4) Protein Electrophoresis: After being treated at 95° C. for 5 min, the loading sample was loaded (15 μg protein/lane). The protein was separated on 7.5% SDS-acrylamide gel for 1-2 hours under the voltage of 80-120 V.
(§5) Electrotransferring the protein and blocking the membrane: After electrophoresis was finished, the protein was transferred to PVDF membrane using semi-dry transferring slot based on 0.8 mA/cm^2 membrane area under the electric current of 80 mA for 2 hours. After that, the membrane was shaken for 2 hours with 7.5% skim milk/TTBS to block the membrane.
(§6) Antigen-antibody reaction: After the blocking process was finished, the membrane was incubated with primary antibody (antibody against phosphorylated ACC (P-ACC) and antibody against phosphorylated AMPK (P-AMPK), all purchased from Cell signaling (USA), with the working concentration of 1:1000) overnight at 4° C. The membrane was removed, and the primary antibody was recovered. The membrane was washed 5 times, each for 10 min in TTBS. The membrane was shaken for 2 hours with the secondary antibody (horseradish peroxidase-conjugated goat-anti-rabbit IgG antibody, purchased from Bio-rad (USA), with the working concentration of 1:5000) at room temperature. The secondary antibody was discarded. The membrane was washed 5 times, each for 10 min in TTBS in order to remove the unbound secondary antibody.
(§7) ECL exposure and development: Luminescent agents, ECL 1, 2, were mixed homogeneously, and incubated with the membrane for 3-5 min. The membrane was removed, wrapped in preservative film, and transferred into dark room for exposure. After exposure with X-film, the film was developed, washed, recorded and conserved.
(§8) Semi-quantitative analysis was performed through optical density scan using computer image analysis system. Grey level of the protein expression was calculated. The target grey level was divided by the grey level of internal standard, and a histogram was plotted, taking the normal group as 1 unit.

[3] = test system: Acetyl CoA Carboxylase (ACC); assay: Phosphorylation of ACC in HepG2 cell (Western blot); format: cell-based, Human; details: HepG2, 50 uM, 5 minutes, P<0.01 or P<0.05
Method: as §1, §2, §3, §4, §5, §6, §7, §8

[4] = baseline (without insulin), relative to control

## O=C1Oc2ccccc2Oc2ccccc21 [AA0, Dibenzo[b,e][1,4]dioxepin-11-one]
[1]; 10 μM, 2 h incubation
  Glucose uptake, Mean, Compound + Insulin Group (Control Group = 1.000): 2.130
[1]; [4]
  fold induction at 10 µM: 1.12

## CCCOC(=O)c1cc(OC)c(C)c2c1Oc1c(CNc3ccc(S(N)(=O)=O)cc3)c(O)cc(C)c1C(=O)O2 [AA5, 3-Hydroxy-8-methoxy-1,9-dimethyl-11-oxo-4-[(4-sulfamoyl-phenylamino)-methyl]-11H-dibenzo[b,e][1,4]dioxepine-6-carboxylic acid propyl ester]
[2]
  Level of phosphorylation for AMPK protein versus DMSO control: increased significantly

## CCCOC(=O)c1cc(OC)c(C)c2c1Oc1c(CNCCN3CCOCC3)c(O)cc(C)c1C(=O)O2 [AA6, 3-Hydroxy-8-methoxy-1,9-dimethyl-4-[(2-morpholin-4-yl-ethylamino)-methyl]-11-oxo-11H-dibenzo[b,e][1,4]dioxepine-6-carboxylic acid propyl ester]
[3]
  Level of phosphorylation for ACC protein versus DMSO control: improved significantly
[2]
  Level of phosphorylation for AMPK protein versus DMSO control: increased significantly

## COc1cc(C(=O)O)c2c(c1C)OC(=O)c1c(C)cc(O)c(CNc3ccc(F)cc3)c1O2 [AA7, 4-[(4-Fluoro-phenylamino)-methyl]-3-hydroxy-8-methoxy-1,9-dimethyl-11-oxo-11H-dibenzo[b,e][1,4]dioxepine-6-carboxylic acid]
[1]; 10 μM, 2 h incubation
  Glucose uptake, Mean, Compound + Insulin Group (Control Group = 1.000): 1.786
[1]; [4]
  fold induction at 10 µM: 1.13
[3]
  Level of phosphorylation for ACC protein versus DMSO control: improved significantly

## CNC(=O)c1cc(OC)c(C)c2c1Oc1c(C=O)c(O)cc(C)c1C(=O)O2 [AB2, 4-Formyl-3-hydroxy-8-methoxy-1,9-dimethyl-11-oxo-11H-dibenzo[b,e][1,4]dioxepine-6-carboxylic acid methylamide]
[1]; 10 μM, 2 h incubation
  Glucose uptake, Mean, Compound + Insulin Group (Control Group = 1.000): 1.639
[1]; [4]
  fold induction at 10 µM: 1.18

## CCNC(=O)c1cc(OC)c(C)c2c1Oc1c(C=O)c(O)cc(C)c1C(=O)O2 [AB4, 4-Formyl-3-hydroxy-8-methoxy-1,9-dimethyl-11-oxo-11H-dibenzo[b,e][1,4]dioxepine-6-carboxylic acid ethylamide]
[1]; 10 μM, 2 h incubation
  Glucose uptake, Mean, Compound + Insulin Group (Control Group = 1.000): 1.837
[1]; [4]
  fold induction at 10 µM: 1.11

## COc1cc(C(=O)Nc2ccc(S(N)(=O)=O)cc2)c2c(c1C)OC(=O)c1c(C)cc(O)c(C=Nc3ccc(S(N)(=O)=O)cc3)c1O2 [AB9, 3-Hydroxy-8-methoxy-1,9-dimethyl-11-oxo-4-[(4-sulfamoylphenyl)-iminomethyl]-11H-dibenzo[b,e][1,4]dioxepine-6-[carboxy-(4-sulfamoyl)phenylamide]]
[1]; 10 μM, 2 h incubation, baseline (without insulin), relative to control
  Glucose uptake, Mean, Compound Group (Control Group = 1.000): 1.150
[1]; 10 μM, 2 h incubation
  Glucose uptake, Mean, Compound + Insulin Group (Control Group = 1.000): 1.555

## COc1ccc2c(c1)NC(=O)c1cc(Cl)c(O)cc1N2 [BT5, 2-Chloro-3-hydroxy-8-methoxy-5,10-dihydro-dibenzo[b,e][1,4]diazepin-11-one]
[1]; 10 μM, 2 h incubation
  Glucose uptake, Mean, Compound + Insulin Group (Control Group = 1.000): 1.728
[1]; [4]
  fold induction at 10 µM: 1.23
[3]
  Level of phosphorylation for ACC protein versus DMSO control: improved significantly

## Cc1cc2c(c(C(=O)O)c1)Nc1ncccc1C(=O)N2 [BT7, 8-Methyl-5-oxo-6,11-dihydro-5H-benzo[b]pyrido[2,3-e][1,4]diazepine-10-carboxylic acid]
[3]
  Level of phosphorylation for ACC protein versus DMSO control: improved significantly
[2]
  Level of phosphorylation for AMPK protein versus DMSO control: increased significantly

## COc1cnc2c(c1)NC(=O)c1ccc(O)c(C=O)c1N2 [BU0, 9-Hydroxy-3-methoxy-6-oxo-6,11-dihydro-5H-benzo[e]pyrido[3,2-b][1,4]diazepine-10-carbaldehyde]
[1]; 10 μM, 2 h incubation
  Glucose uptake, Mean, Compound + Insulin Group (Control Group = 1.000): 2.147
[1]; [4]
  fold induction at 10 µM: 1.43
[2]
  Level of phosphorylation for AMPK protein versus DMSO control: increased significantly

## COC(=O)c1cc(OC)c(C)c2c1Oc1c(C=O)c(O)cc(C)c1C(=O)O2 [Compound A0, 4-Formyl-3-hydroxy-8-methoxy-1,9-dimethyl-11-oxo-11H-dibenzo[b,e][1,4]dioxepine-6-carboxylic acid methyl ester]
[1]; 10 μM, 2 h incubation
  Glucose uptake, Mean, Compound + Insulin Group (Control Group = 1.000): 2.710
[1]; [4]
  fold induction at 10 µM: 1.33
[3]
  Level of phosphorylation for ACC protein versus DMSO control: improved significantly

## COc1cc(C(=O)O)c2c(c1C)OC(=O)c1c(C)cc(O)c(CN3CCNCC3)c1O2 [Compound D1, 3-Hydroxy-8-methoxy-1,9-dimethyl-11-oxo-4-(piperazin-1-ylmethyl)-11H-dibenzo[b,e][1,4]dioxepine-6-carboxylic acid]
[1]; 10 μM, 2 h incubation
  Glucose uptake, Mean, Compound + Insulin Group (Control Group = 1.000): 3.673
[1]; [4]
  fold induction at 10 µM: 1.28
[2]
  Level of phosphorylation for AMPK protein versus DMSO control: increased significantly

## COc1cc(C(=O)O)c2c(c1C)OC(=O)c1c(C)cc(O)c(CNC(C)(C)C)c1O2 [Compound D3, 4-(tert-Butylamino-methyl)-3-hydroxy-8-methoxy-1,9-dimethyl-11-oxo-11H-dibenzo[b,e][1,4]dioxepine-6-carboxylic acid]
[1]; 10 μM, 2 h incubation
  Glucose uptake, Mean, Compound + Insulin Group (Control Group = 1.000): 3.001
[1]; [4]
  fold induction at 10 µM: 1.12

## COc1cc(C(=O)O)c2c(c1C)OC(=O)c1c(C)cc(O)c(CN3CCN(Cc4ccccc4)CC3)c1O2 [Compound D4, 4-(4-Benzyl-piperazin-1-ylmethyl)-3-hydroxy-8-methoxy-1,9-dimethyl-11-oxo-11H-dibenzo[b,e][1,4]dioxepine-6-carboxylic acid]
[1]; 10 μM, 2 h incubation
  Glucose uptake, Mean, Compound + Insulin Group (Control Group = 1.000): 3.717
[1]; [4]
  fold induction at 10 µM: 1.19

## COc1cc(C(=O)O)c2c(c1C)OC(=O)c1c(C)cc(O)c(CNc3ccc(NC(C)=O)cc3)c1O2 [Compound D8, 4-[(4-Acetylamino-phenylamino)-methyl]-3-hydroxy-8-methoxy-1,9-dimethyl-11-oxo-11H-dibenzo[b,e][1,4]dioxepine-6-carboxylic acid]
[1]; 10 μM, 2 h incubation
  Glucose uptake, Mean, Compound + Insulin Group (Control Group = 1.000): 3.877
[1]; [4]
  fold induction at 10 µM: 1.21
[3]
  Level of phosphorylation for ACC protein versus DMSO control: improved significantly
